The values that follow come from patent publication US10155766B2, “Pyrazolopyrimidine antibacterial agents” (priority 2016, dated 2018).

“Also recorded” adds a separate entry of the source.

Data set [1] concerns Burkholderia thailandensis (E 264). The data set is described as follows: microbe, parasite or virus in culture. The note with it: for zone of inhibition at 100 µM / zone of inhibition at 500 µM / zone of inhibition at 1000 µM: Burkholderia thailandensis, read-out: Zone of inhibition (diameter, in millimeter) B. thailandensis; for zone of inhibition at 100 µM: Conc. 0.1 mM; for zone of inhibition at 500 µM: Conc. 0.5 mM; for zone of inhibition at 1000 µM: Conc. 1.0 mM. Format: cell-based.

In data set [2] the test system is Pseudomonas aeruginosa (ATCC 27853). Briefly: microbe, parasite or virus in culture. Format: cell-based. As to conditions: for zone of inhibition at 100 µM / zone of inhibition at 500 µM / zone of inhibition at 1000 µM: Pseudomonas aeruginosa, ATCC27853, read-out: Zone of inhibition (diameter, in millimeter) P. aeruginosa; for zone of inhibition at 100 µM: Conc. 0.1 mM; for zone of inhibition at 500 µM: Conc. 0.5 mM; for zone of inhibition at 1000 µM: Conc. 1.0 mM.

Data set [3] is described as follows: Solubility observed in work-up. As to conditions: in water and ethyl acetate.
The test system of another data set is BtIspE. It counts as binding, Burkholderia thailandensis.
Data set [4] relates to Mycobacterium abscessus (Ma) IspE. It counts as binding.
The target of the next data set is BpIspF (Burkholderia pseudomallei, UniProt Q63T71). Format: binding, B. pseudomallei.
Chain of BpIspF (Q63T71 whole entry, looked up): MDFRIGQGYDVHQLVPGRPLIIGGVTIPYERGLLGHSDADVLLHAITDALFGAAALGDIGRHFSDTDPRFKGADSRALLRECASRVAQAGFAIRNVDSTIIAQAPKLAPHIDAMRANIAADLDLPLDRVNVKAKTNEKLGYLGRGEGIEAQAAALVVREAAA
Another data set addresses T1, BtIspD (Burkholderia thailandensis, UniProt Q2SWT6).
T1 construct: 6xHis (AVA0421 vector, 3C-cleavable) (N, cleaved yes); made in house; host or cells: E. coli BL21(DE3)R3 Rosetta Oxford
T1 sequence (Q2SWT6 1-236): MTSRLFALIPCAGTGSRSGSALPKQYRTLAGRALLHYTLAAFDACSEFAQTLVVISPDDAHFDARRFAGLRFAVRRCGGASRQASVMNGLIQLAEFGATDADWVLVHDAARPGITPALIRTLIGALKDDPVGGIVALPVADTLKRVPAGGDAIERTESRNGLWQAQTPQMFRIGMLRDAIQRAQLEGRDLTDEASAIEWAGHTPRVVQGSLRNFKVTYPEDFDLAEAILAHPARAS
It counts as binding.

In data set [5] the target is T2, Mycobacterium paratuberculosis (Mp) IspD (Mycolicibacterium paratuberculosis, UniProt Q743W5).
T2 sequence (Q743W5 1-235): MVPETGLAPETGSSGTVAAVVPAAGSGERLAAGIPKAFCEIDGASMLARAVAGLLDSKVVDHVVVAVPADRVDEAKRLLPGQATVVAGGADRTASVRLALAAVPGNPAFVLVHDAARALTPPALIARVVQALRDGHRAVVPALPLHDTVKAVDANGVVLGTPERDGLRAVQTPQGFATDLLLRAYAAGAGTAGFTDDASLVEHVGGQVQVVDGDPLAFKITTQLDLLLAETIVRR
Format: binding.

With `Cn1ncc2c(NCCO)ncnc21` [Compound 3], the melting point lay in the range of 196 to 198 °C. In [1], the zone of inhibition at 100 µM was 0 mm, the zone of inhibition at 500 µM was 0 mm and the zone of inhibition at 1000 µM is 0 mm. In data set [2], the zone of inhibition at 100 µM was determined as 0 mm, the zone of inhibition at 500 µM came out at 15 mm and the zone of inhibition at 1000 µM worked out at 21 mm. For the same compound, the “solubility (in words)” value in [3] is “partially soluble”.
`Cn1ncc2c(NCc3cccc(F)c3)ncnc21` [Compound 14] had a melting point of 176 to 177 °C. In data set [1], the zone of inhibition at 100 µM amounted to 0 mm, the zone of inhibition at 500 µM worked out at 6 mm and the zone of inhibition at 1000 µM turned out to be 11 mm. Besides, in data set [2], the zone of inhibition at 100 µM is 0 mm, the zone of inhibition at 500 µM came out at 10 mm and the zone of inhibition at 1000 µM was 15 mm. The “STD-NMR binding to BtIspE (in words)” value with BtIspE was “high % STD values”.
`Cn1ncc2c(NCc3ccc(Cl)cc3)ncnc21` [Compound 17]: the melting point was in the range of 197 to 199 °C. Besides, in data set [1], the “growth inhibition of B. thailandensis (in words)” value is on record as “did not show measurable growth inhibition”, the zone of inhibition at 100 µM is 0 mm, the zone of inhibition at 500 µM turned out to be 0 mm and the zone of inhibition at 1000 µM turned out to be 0 mm. The “fragment binding to MaIspE (in words)” value in data set [4] is “hit and clear fragment binder”. In addition, in data set [2], the “growth inhibition of P. aeruginosa (in words)” value is reported as “did not show measurable growth inhibition”, the zone of inhibition at 100 µM amounted to 0 mm, the zone of inhibition at 500 µM was determined as 0 mm and the zone of inhibition at 1000 µM was found to be 0 mm. The “fragment binding to BpIspF (in words)” value on BpIspF was “very weak binder below the STD-NMR hit threshold”. Further, on BtIspD, the “STD-NMR binding to BtIspD (in words)” value was “strongest binders”. In data set [5], the “fragment binding to MpIspD (in words)” value is “hit and clear fragment binder”.
`Cn1ncc2c(NCc3ccc(Cl)c(Cl)c3)ncnc21` [Compound 18] displayed a melting point of 170 to 173 °C. Further, in data set [1], the zone of inhibition at 100 µM is 0 mm, the zone of inhibition at 500 µM amounted to 12 mm and the zone of inhibition at 1000 µM came out at 18 mm. In addition, in [2], the zone of inhibition at 100 µM was determined as 0 mm, the zone of inhibition at 500 µM amounted to 10 mm and the zone of inhibition at 1000 µM was 20 mm. Further, the “STD-NMR binding to BtIspD (in words)” value on BtIspD is recorded as “strongest binders”. In the data set on BtIspE, the “STD-NMR binding to BtIspE (in words)” value was “high % STD values”.
The compound `Cn1ncc2c(NCCc3ccc(O)cc3)ncnc21` [Compound 25] yielded a melting point of 182 to 184 °C. Further, in [1], the “growth inhibition of B. thailandensis (in words)” value was “Activity was not detected; also recorded: did not show zone of inhibition activity”, the zone of inhibition at 100 µM was found to be 0 mm, the zone of inhibition at 500 µM turned out to be 0 mm and the zone of inhibition at 1000 µM came to 0 mm. Further, in data set [2], the “growth inhibition of P. aeruginosa (in words)” value is “Activity was not detected; also recorded: did not show zone of inhibition activity”, the zone of inhibition at 100 µM worked out at 0 mm, the zone of inhibition at 500 µM was found to be 0 mm and the zone of inhibition at 1000 µM was found to be 0 mm. The “STD-NMR binding to BtIspD (in words)” value at BtIspD was “strongest binders”. Also, in the data set with BtIspE, the “STD-NMR binding to BtIspE (in words)” value is on record as “weaker binder”, the “change of % STD binding signal to BtIspE after subsequent addition of CDP” value is “loses all binding signal entirely” and the “change of % STD binding signal to BtIspE upon addition of ADP” value is “no change”.
In the case of `Cn1ncc2c(NCCc3ccc(Cl)cc3Cl)ncnc21` [Compound 29], the melting point lay in the range of 145 to 147 °C. In addition, in [1], the “growth inhibition of B. thailandensis (in words)” value is recorded as “most potent compound tested”, the zone of inhibition at 100 µM is 6 mm, the zone of inhibition at 500 µM turned out to be 10 mm and the zone of inhibition at 1000 µM turned out to be 18 mm. In data set [2], the “concentration at which inhibitory activity against kanamycin resistant P. aeruginosa is shown” value was 0.5 mM, the “growth inhibition of P. aeruginosa (in words)” value is given as “measurable potency”, the zone of inhibition at 100 µM was determined as 0 mm and the zone of inhibition at 500 µM was found to be 12 mm. The zone of inhibition at 1000 µM in data set [2] came to 18 mm. The “STD-NMR binding to BtIspD (in words)” value on BtIspD is “strongest binders”. For the same compound, in the data set with BtIspE, the “STD-NMR binding to BtIspE (in words)” value is on record as “high % STD values; also recorded: highest % STD value; also recorded: significant interactions with the active site of BtIspE”.
